14 compounds from patent US8507527B2, “Method for stabilizing anti-dementia drug” (EISAI R & D Management Co., Ltd., priority 2004, dated 2013) can be followed below.

This data set is described as follows: pH of aqueous solutions or suspensions of additives, polymers and donepezil hydrochloride. As to conditions: for pH OF ADDITIVES (2.5% AQUEOUS SOLUTIONS OR SUSPENSIONS): additive of the example alone, dissolved or suspended in purified water at 2.5%. In kind it is physicochemical.

Regarding `NCC(=O)O` [GLYCINE, glycine], the “pH OF ADDITIVES (2.5% AQUEOUS SOLUTIONS OR SUSPENSIONS)” value is recorded as 6.2.

Regarding `N[C@@H](CC(=O)O)C(=O)O` [ASPARTIC ACID, aspartic acid], the “pH OF ADDITIVES (2.5% AQUEOUS SOLUTIONS OR SUSPENSIONS)” value was found to be 3.0.

For `O=C(O)CC(O)(CC(=O)O)C(=O)O` [CITRIC ACID, citric acid], the “pH OF ADDITIVES (2.5% AQUEOUS SOLUTIONS OR SUSPENSIONS)” value is listed as 2.0.

On to `CSCC[C@H](N)C(=O)O` [METHIONINE, methionine], for which the “pH OF ADDITIVES (2.5% AQUEOUS SOLUTIONS OR SUSPENSIONS)” value was found to be 5.9.

As for `N[C@@H](CC(=O)[O-])C(=O)[O-].[Na+].[Na+]` [SODIUM ASPARTATE, sodium aspartate], the “pH OF ADDITIVES (2.5% AQUEOUS SOLUTIONS OR SUSPENSIONS)” value is listed as 6.8.

On to `Cl.N[C@@H](CS)C(=O)O` [CYSTEINE HYDROCHLORIDE, cysteine hydrochloride], for which the “pH OF ADDITIVES (2.5% AQUEOUS SOLUTIONS OR SUSPENSIONS)” value was determined as 1.5.

On to `O=C([O-])CC(O)(CC(=O)[O-])C(=O)[O-].[Na+].[Na+].[Na+]` [SODIUM CITRATE, sodium citrate], for which the “pH OF ADDITIVES (2.5% AQUEOUS SOLUTIONS OR SUSPENSIONS)” value was 8.3.

Take `N[C@@H](CS)C(=O)O` [CYSTEINE, cysteine]: the “pH OF ADDITIVES (2.5% AQUEOUS SOLUTIONS OR SUSPENSIONS)” value stood at 5.1.

For the compound `OC[C@H]1O[C@@H](O[C@H]2[C@H](O)[C@@H](O)C(O)O[C@@H]2CO)[C@H](O)[C@@H](O)[C@H]1O` (some centres unmarked) [FlowLac100, LACTOSE], the pH (2.5% aqueous solution or suspension) turned out to be 5.5.

As to `O=C([O-])CN(CCN(CC(=O)[O-])CC(=O)O)CC(=O)O.[Na+].[Na+]` [DISODIUM EDETATE, disodium edetate], the “pH OF ADDITIVES (2.5% AQUEOUS SOLUTIONS OR SUSPENSIONS)” value stood at 4.5.

Consider `O=C1O[C@H]([C@@H](O)CO)C([O-])=C1O.[Na+]` [SODIUM ASCORBATE, sodium ascorbate], for which the “pH OF ADDITIVES (2.5% AQUEOUS SOLUTIONS OR SUSPENSIONS)” value is given as 7.5.

sodium dihydrogen citrate [SODIUM […]]: the “pH OF ADDITIVES (2.5% AQUEOUS SOLUTIONS OR SUSPENSIONS)” value is listed as 3.7.

In the case of `O=C1O[C@H]([C@@H](O)CO)C(O)=C1O` [ASCORBIC ACID, ascorbic acid], the “pH OF ADDITIVES (2.5% AQUEOUS SOLUTIONS OR SUSPENSIONS)” value is reported as 2.6.

As for `O=C([O-])CC(O)(CC(=O)[O-])C(=O)O.[Na+].[Na+]` [DISODIUM CITRATE, disodium citrate], the “pH OF ADDITIVES (2.5% AQUEOUS SOLUTIONS OR SUSPENSIONS)” value is reported as 5.2.
